# Reference: US20240293370A1, “USE OF COMPOUNDS IN INHIBITING OR KILLING MITES AND TREATING XEROPHTHALMIA” (Precvision Biotechnologies LTD., priority 2021, published 2024)
# Counter-ions that a name gives are not always drawn.
# Tested on: Demodex
# Experiment: Acaricidal experiment: Demodex culture in vitro, survival time of mites
# Conditions: adult Demodex, 20° C., 96% humidity
# Description: This study strictly followed the ethical principles of the Declaration of Helsinki, and Ethical Guidelines for Biomedical Research Involving Human Subjects. In this study, Demodex was collected from patients diagnosed with ocular Demodex infection. Those meeting the inclusion criteria would be enrolled after an informed conversation and signing an informed consent form.
# Demodex detection was performed according to the conventional eyelash microscopic examination method. 3 eyelashes were extracted from each eyelid, and a total of 12 eyelashes were extracted. The extracted eyelashes were immediately placed on a glass slide, and one piece of each three eyelashes was placed under an ordinary light microscope for observation. Demodex at all stages were counted and classified according to morphology (specific criteria were: Demodex brevis at a head-to-body ratio of 1:1 and Demodex folliculorum at a head-to-body ratio of 1:3 to 1:4). Only adults that were fully exposed to the field of view were taken as subjects (larvae and eggs were not considered as subjects since they were more fragile in early life).
# Based on the above detection of Demodex, 50 μl of different solutions were added to each slide, and the survival of the worms was observed every 1 hour. The death was judged by observing whether the worms were active (body, limbs, or the like) under a microscope. Two skilled Demodex-related experimenters observed and judged separately during the experiment. If the judgment results were different, the third skilled experimenter was asked to make an independent judgment. The culture in vitro was performed in a climate chamber at 20° C. and 96% humidity. Slides were transported in a humid chamber under observation and the solution was added appropriately to ensure high humidity before vacuoles appeared on solution evaporation.
smiles,measurement,setting,value
N[C@H]1C[C@@H]1c1ccccc1 [Hydrochloride salt of V-C],Average survival time of mites,concentration 1 mg/mL in 0.9% NaCl solution,7.44 ± 6.07 h
same,Average survival time of mites,concentration 3 mg/mL in 0.9% NaCl solution,5.66 ± 0.91 h
same,Average survival time of mites,concentration 10 mg/mL in 0.9% NaCl solution,2.89 ± 1.08 h
same,Average survival time of mites,concentration 30 mg/mL in 0.9% NaCl solution,2.24 ± 1.32 h
